Data as given in patent US8134015B2, “Compound inhibiting in vivo phosphorous transport and medicine containing the same” (Kyowa Hakko Kirin Co., Ltd., priority 2003, dated 2012).

Assays:
rat NaPi-2b = target: T1, rat NaPi-2b (Rattus norvegicus, UniProt Q9JJ09); test: Sodium-dependent phosphate uptake of Xenopus oocytes which expressed NaPi-2b (32P); format: cell-based
T1 construct: expressed in transfected cells; host or cells: Xenopus oocytes injected with cRNA
T1 sequence (Q9JJ09 1-695): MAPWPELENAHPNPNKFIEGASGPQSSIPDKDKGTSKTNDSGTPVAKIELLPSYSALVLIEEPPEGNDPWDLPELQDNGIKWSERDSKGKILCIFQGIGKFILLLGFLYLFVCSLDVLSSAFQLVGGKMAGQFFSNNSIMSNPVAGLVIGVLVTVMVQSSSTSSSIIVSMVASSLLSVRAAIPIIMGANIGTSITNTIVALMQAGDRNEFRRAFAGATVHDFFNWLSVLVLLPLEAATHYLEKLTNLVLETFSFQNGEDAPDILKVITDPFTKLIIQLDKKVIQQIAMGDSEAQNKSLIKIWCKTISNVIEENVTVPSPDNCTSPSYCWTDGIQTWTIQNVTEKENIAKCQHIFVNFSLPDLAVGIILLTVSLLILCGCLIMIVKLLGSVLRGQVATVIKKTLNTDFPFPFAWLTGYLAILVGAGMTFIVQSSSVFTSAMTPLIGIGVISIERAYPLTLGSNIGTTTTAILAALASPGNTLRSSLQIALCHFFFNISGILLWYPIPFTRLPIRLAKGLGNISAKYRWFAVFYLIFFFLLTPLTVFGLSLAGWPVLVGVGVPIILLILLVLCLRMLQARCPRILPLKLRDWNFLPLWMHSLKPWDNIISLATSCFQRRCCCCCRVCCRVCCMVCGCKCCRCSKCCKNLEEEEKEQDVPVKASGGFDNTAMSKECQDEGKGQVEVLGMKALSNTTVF
How it was run: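 Steps: rat NaPi-2b cDNA cloned from small intestine; cRNA made and injected into oocytes; 2-day expression; 32P phosphate uptake with compound; % inhibition at 300/100 μM taken from one curve.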

[1] = system: rabbit jejunal brush border membrane vesicles; test: Sodium-dependent phosphate uptake of rabbit jejunal brush border membrane vesicles (32P, rapid filtration); format: biochemical; details: FIG. 1
From the text: Pharmacological Test Example 2
Experiment of Sodium-Dependent Phosphate Uptake of Rabbit Jejunal Brush Border Membrane Vesicles
(§1) Jejunal epithelium was obtained from New Zealand white male rabbits (7 weeks old, obtained from KITAYAMA LABES Co., Ltd. (Japan)), and brush border membrane vesicles were isolated by the calcium precipitation method described in Kanako Katai et al., J. Biochem. 121, 50-55, 1997, and Peerce, B. E. et al., Biochemistry 26, 4272-4279, 1987. Thereafter, for compound 29 and compound 68, the phosphate uptake inhibitory activity was measured using the same samples with ^32P radioactive phosphorus (manufactured by Daiichi Kagaku Inc. (Japan)) by the rapid filtration method described in Kanako Katai et al., J. Biochem. 121, 50-55, 1997. […] Further, in the same experiment, nonspective inhibitory activity against glucose absorption was determined using 14C-glucose (manufactured by Moravek Biochemical Inc. (US)). […] In both the experiments, a group with the addition of potassium chloride was used as a negative control for nonspecific uptake. All the test results given below were expressed in terms of average value±standard error. Student's t-test was used for a significant test of the control group and the test compound group.

[2] = system: rabbit jejunal brush border membrane vesicles; test: Nonspecific inhibitory activity against glucose absorption in rabbit jejunal brush border membrane vesicles (14C-glucose); format: biochemical; details: FIG. 2
Experimental: as §1

human NaPi-2a = target: T2, human NaPi-2a (Homo sapiens, UniProt Q06495); test: Sodium-dependent phosphate uptake of Xenopus oocytes which expressed NaPi-2a (32P); format: cell-based; details: Xenopus oocytes expressing human NaPi-2a, FIG. 3, FIG. 4
T2 construct: expressed in transfected cells
T2 sequence (Q06495 1-639): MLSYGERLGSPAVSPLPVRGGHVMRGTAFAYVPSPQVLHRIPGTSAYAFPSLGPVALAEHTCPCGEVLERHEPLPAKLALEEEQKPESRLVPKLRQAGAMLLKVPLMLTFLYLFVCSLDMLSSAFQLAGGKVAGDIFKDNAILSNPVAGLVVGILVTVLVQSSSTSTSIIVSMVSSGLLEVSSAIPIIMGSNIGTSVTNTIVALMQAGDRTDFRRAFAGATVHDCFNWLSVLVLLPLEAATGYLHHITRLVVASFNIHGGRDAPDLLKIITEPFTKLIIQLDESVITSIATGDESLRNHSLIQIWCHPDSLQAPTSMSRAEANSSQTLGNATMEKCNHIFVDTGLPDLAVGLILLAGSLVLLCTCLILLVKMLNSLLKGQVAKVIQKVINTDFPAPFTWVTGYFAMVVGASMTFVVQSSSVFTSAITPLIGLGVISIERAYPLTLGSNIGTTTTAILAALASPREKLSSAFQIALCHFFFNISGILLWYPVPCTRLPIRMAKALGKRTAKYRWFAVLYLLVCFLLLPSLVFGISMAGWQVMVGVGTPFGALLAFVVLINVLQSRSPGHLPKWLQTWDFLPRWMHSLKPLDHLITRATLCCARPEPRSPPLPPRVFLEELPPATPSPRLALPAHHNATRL
From the text: Experiment of Sodium-Dependent Phosphate Uptake of Xenopus oocytes which Expressed NaPi-2a
In the test, a group with the addition of choline chloride (Choline Cl) was used as a negative control for nonspecific uptake, and PFA (phosphonoformic acid) was used as a positive control for phosphate transport inhibition.

COc1ccc(C(=O)Nc2ccc(Br)cc2C(=O)N/N=C/c2cccc(F)c2)cc1OC [Compound 29, N-[4-Bromo-2-(3-fluoro-benzylidene-hydrazinocarbonyl)-phenyl]-3,4-dimethoxy-benzamide]
IC50 (rat NaPi-2b; Xenopus oocytes expressing rat NaPi-2b, 32P radioactive phosphorus, read-out: IC50 (phosphate uptake inhibitory activity)): 550 nM
phosphate uptake inhibitory activity against NaPi-2b (rat NaPi-2b; Xenopus oocytes, FIG. 4): had inhibitory activity
phosphate uptake inhibitory activity [1]: concentration-dependent inhibitory activity
nonspecific inhibitory activity against glucose absorption [2]: did not have the inhibitory activity
phosphate uptake inhibitory activity against NaPi-2a (human NaPi-2a): had inhibitory activity
